Laboratory results from ChEMBL document CHEMBL5678818, “Discovery of potent SOS1 inhibitors that block RAS activation via disruption of the RAS-SOS1 interaction” (Proc Natl Acad Sci U S A, 2019).

Key:
[1] = system: Tyrosine-protein kinase ABL1 (Homo sapiens), P00519 [F317I]; assay: Inhibition of phosphorylated ABL1 F317I mutant (unknown origin) assessed as residual activity at 100 nM by KINOMEscan analysis relative to control
[2] = molecular target: T1, Serine/threonine-protein kinase BRSK1 (Homo sapiens) (UniProt Q8TDC3); assay: Inhibition of BRSK1 (unknown origin) assessed as residual activity at 100 nM by KINOMEscan analysis relative to control
T1 sequence (whole entry): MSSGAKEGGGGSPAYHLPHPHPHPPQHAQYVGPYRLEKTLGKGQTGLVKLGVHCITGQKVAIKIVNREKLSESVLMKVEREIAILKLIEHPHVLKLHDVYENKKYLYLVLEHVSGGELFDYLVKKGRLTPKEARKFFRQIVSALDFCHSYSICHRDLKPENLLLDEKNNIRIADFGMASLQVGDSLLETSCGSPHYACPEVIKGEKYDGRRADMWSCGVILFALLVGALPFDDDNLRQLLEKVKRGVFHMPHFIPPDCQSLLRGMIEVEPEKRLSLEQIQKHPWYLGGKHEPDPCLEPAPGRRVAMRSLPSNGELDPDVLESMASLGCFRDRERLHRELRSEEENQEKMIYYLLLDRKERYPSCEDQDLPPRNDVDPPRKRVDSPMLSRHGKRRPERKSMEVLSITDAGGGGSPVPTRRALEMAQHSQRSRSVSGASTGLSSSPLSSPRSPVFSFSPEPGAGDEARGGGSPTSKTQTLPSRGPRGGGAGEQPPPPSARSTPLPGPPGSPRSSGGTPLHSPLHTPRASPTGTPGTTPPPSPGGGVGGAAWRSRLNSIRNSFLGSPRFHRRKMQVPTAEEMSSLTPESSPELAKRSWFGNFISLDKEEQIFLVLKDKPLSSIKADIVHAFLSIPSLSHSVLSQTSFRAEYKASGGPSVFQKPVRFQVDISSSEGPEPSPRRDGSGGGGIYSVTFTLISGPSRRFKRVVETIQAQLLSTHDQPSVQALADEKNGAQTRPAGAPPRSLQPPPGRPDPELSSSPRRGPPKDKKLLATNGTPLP

[3] = molecular target: Tyrosine-protein kinase CSK (Homo sapiens) (UniProt P41240); assay: Inhibition of CSK (unknown origin) assessed as residual activity at 100 nM by KINOMEscan analysis relative to control
Tyrosine-protein kinase CSK (Homo sapiens), sequence (P41240 2-450 limits assumed): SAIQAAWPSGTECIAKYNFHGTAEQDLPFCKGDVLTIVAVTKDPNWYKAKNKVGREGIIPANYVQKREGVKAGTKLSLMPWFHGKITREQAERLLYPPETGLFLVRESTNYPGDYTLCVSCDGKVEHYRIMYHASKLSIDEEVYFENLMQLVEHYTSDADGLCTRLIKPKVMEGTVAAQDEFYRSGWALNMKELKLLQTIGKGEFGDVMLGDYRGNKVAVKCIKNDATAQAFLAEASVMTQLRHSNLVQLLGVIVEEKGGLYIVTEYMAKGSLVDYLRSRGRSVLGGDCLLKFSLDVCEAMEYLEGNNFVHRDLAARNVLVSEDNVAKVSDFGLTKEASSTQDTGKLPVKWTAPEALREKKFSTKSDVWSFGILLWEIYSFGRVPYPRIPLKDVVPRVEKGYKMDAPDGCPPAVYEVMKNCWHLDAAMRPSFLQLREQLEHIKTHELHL

[4] = molecular target: Homeodomain-interacting protein kinase 1 (Homo sapiens) (UniProt Q86Z02); assay: Inhibition of HIPK1 (unknown origin) assessed as residual activity at 100 nM by KINOMEscan analysis relative to control
Homeodomain-interacting protein kinase 1 (Homo sapiens), sequence (Q86Z02 whole entry, looked up): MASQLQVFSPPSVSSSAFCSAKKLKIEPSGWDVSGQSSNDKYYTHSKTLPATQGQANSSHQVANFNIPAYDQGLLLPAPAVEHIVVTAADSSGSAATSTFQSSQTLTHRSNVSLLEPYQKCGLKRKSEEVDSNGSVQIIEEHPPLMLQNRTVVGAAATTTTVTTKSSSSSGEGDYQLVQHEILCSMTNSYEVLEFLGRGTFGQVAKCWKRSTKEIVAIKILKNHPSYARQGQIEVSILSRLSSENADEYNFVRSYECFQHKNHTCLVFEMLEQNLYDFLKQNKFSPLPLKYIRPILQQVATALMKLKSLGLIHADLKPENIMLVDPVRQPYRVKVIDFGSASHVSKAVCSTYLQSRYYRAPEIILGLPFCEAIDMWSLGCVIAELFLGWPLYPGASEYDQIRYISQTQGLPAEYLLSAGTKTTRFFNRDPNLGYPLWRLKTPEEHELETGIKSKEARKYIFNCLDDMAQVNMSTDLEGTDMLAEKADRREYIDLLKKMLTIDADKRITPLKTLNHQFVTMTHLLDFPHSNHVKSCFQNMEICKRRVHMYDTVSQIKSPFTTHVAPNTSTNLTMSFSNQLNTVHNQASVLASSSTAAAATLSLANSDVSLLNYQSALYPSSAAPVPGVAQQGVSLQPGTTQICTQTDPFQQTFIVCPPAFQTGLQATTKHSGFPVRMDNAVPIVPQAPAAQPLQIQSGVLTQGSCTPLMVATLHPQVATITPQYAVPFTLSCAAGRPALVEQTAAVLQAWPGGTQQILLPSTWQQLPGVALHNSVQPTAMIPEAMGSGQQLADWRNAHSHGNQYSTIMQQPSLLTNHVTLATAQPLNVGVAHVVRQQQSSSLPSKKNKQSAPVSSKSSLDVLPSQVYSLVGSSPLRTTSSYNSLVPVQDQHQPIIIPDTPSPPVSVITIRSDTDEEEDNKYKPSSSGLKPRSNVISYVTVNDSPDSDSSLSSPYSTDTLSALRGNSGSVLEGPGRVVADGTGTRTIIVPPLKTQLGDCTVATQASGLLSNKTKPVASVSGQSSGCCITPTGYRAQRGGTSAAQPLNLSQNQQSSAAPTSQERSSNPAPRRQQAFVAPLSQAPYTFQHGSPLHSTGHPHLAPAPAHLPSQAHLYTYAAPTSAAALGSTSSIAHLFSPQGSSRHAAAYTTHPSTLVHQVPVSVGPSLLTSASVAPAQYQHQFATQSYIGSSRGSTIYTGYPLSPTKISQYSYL

[5] = molecular target: Mitogen-activated protein kinase kinase kinase 1 (Homo sapiens) (UniProt Q13233); assay: Inhibition of MAP3K1 (unknown origin) assessed as residual activity at 100 nM by KINOMEscan analysis relative to control
Mitogen-activated protein kinase kinase kinase 1 (Homo sapiens), sequence (Q13233 whole entry): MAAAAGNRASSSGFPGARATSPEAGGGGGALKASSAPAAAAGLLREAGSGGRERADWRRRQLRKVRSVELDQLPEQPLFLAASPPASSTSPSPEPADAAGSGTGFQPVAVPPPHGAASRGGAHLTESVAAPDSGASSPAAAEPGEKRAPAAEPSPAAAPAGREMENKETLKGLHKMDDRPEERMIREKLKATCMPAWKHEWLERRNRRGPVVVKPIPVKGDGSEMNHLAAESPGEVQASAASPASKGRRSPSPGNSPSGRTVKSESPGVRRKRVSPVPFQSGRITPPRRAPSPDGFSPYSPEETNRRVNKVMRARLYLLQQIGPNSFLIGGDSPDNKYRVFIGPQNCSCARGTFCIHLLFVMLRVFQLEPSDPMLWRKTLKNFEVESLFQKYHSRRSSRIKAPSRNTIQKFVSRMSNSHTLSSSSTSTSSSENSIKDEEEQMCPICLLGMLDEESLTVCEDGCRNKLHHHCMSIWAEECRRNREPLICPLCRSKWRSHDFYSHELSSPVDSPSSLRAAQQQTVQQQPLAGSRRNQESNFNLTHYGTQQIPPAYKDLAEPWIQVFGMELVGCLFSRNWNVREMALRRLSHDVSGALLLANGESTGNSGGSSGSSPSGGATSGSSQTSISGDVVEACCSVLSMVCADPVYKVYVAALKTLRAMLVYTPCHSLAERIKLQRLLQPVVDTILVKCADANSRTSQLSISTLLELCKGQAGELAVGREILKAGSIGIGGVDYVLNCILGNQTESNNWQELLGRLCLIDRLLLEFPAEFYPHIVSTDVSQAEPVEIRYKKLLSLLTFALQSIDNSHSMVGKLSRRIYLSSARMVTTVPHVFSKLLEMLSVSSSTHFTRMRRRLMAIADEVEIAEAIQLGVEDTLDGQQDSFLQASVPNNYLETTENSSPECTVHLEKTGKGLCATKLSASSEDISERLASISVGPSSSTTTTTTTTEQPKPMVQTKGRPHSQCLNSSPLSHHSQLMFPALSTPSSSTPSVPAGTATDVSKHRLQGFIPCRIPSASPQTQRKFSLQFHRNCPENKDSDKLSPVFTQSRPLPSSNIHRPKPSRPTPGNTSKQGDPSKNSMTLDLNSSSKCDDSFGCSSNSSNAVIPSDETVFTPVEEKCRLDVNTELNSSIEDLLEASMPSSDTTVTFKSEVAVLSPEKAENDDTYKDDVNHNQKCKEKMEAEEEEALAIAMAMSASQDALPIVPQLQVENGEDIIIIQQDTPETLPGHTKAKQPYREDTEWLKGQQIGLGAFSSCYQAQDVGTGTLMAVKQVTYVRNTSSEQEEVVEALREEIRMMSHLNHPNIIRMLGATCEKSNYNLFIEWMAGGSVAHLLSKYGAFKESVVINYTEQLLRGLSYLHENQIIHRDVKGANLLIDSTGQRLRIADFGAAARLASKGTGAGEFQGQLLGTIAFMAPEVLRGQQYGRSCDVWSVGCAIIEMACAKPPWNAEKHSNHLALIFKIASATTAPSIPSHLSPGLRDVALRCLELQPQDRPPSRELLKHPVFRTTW

[6] = molecular target: T2, MAP/microtubule affinity-regulating kinase 4 (Homo sapiens) (UniProt Q96L34); assay: Inhibition of MARK4 (unknown origin) assessed as residual activity at 100 nM by KINOMEscan analysis relative to control
T2 sequence (whole entry): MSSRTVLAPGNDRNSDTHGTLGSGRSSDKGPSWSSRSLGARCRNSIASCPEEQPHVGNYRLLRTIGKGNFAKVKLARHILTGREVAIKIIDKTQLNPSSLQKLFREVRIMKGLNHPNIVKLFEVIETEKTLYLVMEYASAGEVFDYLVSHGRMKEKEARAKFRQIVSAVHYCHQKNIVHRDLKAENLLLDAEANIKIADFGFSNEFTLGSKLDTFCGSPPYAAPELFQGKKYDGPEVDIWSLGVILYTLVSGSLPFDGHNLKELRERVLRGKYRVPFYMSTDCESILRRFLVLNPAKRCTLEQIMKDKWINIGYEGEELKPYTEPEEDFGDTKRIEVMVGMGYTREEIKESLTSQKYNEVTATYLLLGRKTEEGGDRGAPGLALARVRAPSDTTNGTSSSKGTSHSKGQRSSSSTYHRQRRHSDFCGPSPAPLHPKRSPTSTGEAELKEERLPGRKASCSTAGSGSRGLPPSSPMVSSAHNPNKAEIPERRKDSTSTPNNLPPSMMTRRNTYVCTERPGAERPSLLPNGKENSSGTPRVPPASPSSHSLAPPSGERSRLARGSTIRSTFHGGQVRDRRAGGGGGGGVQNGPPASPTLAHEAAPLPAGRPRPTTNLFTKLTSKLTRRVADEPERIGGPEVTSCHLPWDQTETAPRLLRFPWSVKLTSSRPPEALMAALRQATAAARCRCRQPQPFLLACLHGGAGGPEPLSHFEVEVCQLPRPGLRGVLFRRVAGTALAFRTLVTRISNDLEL

[7] = molecular target: T3, Serine/threonine-protein kinase TAO1 (Homo sapiens) (UniProt Q7L7X3); assay: Inhibition of TAOK1 (unknown origin) assessed as residual activity at 100 nM by KINOMEscan analysis relative to control
T3 sequence (whole entry): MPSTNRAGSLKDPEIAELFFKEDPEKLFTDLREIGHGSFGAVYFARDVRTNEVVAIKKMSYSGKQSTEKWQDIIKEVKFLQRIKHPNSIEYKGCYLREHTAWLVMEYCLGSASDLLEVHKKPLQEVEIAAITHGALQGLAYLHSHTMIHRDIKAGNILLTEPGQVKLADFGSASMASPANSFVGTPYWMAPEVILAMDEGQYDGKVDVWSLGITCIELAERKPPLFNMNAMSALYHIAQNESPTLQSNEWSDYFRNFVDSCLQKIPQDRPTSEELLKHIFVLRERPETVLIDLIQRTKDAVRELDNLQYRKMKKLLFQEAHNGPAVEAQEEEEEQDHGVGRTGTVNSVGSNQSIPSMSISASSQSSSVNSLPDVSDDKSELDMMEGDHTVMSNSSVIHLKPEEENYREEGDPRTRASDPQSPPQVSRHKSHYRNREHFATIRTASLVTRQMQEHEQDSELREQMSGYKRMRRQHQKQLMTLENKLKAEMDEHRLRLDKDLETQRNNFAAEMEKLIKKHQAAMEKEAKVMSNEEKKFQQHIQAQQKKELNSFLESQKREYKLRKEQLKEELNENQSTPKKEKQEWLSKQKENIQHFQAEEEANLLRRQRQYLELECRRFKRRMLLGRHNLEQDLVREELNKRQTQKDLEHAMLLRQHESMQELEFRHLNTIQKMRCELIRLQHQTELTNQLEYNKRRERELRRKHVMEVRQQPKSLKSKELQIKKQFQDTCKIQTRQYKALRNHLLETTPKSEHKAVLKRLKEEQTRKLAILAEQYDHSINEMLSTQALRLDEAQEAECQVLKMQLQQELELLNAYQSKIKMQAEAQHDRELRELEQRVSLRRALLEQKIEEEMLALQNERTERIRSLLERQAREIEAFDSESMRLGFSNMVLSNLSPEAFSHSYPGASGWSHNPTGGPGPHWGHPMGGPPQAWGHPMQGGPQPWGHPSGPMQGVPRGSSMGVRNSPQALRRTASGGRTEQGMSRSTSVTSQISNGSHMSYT

Tyrosine-protein kinase ABL1 (Homo sapiens), P00519 [F317I], sequence (P00519 whole entry F317I): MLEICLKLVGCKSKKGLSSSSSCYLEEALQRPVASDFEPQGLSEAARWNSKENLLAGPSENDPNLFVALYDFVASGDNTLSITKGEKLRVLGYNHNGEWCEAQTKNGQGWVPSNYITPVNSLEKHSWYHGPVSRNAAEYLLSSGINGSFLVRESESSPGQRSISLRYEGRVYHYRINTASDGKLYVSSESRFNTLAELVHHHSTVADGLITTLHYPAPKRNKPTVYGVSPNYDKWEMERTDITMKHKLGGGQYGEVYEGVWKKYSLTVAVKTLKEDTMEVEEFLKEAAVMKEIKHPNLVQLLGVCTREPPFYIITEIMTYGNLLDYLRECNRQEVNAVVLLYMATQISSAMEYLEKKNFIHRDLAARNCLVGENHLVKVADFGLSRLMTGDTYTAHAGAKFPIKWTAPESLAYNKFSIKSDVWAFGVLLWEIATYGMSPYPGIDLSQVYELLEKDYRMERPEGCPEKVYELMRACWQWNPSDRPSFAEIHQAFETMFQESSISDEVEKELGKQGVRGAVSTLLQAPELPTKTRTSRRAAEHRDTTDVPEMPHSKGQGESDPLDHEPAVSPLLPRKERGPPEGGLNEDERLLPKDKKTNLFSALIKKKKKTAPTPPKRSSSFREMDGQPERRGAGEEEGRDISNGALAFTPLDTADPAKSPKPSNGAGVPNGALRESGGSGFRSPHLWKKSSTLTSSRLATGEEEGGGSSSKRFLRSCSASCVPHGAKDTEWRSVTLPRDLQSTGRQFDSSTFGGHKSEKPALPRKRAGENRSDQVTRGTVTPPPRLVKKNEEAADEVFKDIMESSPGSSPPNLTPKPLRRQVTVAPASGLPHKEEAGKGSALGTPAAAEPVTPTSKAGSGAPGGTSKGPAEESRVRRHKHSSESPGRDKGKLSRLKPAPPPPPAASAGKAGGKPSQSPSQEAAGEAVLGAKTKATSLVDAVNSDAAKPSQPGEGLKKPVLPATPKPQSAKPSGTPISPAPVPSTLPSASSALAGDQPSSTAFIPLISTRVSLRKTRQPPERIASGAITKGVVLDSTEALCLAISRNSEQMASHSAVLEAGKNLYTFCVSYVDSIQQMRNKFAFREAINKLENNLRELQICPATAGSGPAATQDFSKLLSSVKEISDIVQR

## COc1cc2ncnc(N[C@H](C)c3cccc4ccccc34)c2cc1OC
[1]
  Activity: 91%
[2]
  Activity: 100%
[3]
  Activity: 90%
[4]
  Activity: 75%
[5]
  Activity: 100%
[6]
  Activity: 97%
[7]
  Activity: 88%
